Experimental findings from patent US12441719B2, “Inhibitors of SARM1” (Disarm Therapeutics, Inc., priority 2019, dated 2025) are described below.

The target in one assay is T1, SARM1 (Homo sapiens, UniProt Q6SZW1).
T1 construct: AviTag […]; made in house; host or cells: NRK1-HEK293T cells, transiently transfected; the clarified sonicated lysate was used without purification
T1 sequence (Q6SZW1 with tags, fused parts or gaps): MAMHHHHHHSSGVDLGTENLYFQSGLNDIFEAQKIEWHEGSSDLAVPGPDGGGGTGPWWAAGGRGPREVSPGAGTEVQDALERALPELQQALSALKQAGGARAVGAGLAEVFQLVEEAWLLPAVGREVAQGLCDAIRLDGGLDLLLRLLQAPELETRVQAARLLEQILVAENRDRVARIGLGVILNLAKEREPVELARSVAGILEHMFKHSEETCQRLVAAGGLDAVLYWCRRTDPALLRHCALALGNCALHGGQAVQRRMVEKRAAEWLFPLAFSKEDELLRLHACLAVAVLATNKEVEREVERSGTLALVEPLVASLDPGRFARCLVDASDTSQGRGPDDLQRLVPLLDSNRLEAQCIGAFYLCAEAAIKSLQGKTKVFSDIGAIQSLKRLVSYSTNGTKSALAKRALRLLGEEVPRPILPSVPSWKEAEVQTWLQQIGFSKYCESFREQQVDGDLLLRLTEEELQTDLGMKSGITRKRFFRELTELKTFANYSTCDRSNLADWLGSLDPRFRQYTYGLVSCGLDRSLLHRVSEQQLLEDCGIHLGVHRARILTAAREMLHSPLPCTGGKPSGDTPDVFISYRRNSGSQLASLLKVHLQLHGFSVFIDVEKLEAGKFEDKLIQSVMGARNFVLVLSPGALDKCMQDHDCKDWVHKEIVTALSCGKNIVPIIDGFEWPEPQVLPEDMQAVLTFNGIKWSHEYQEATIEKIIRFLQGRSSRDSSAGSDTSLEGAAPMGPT
In words: ARM-SAM-TIR SARM1 IC50 assay (NADase activity, NAD+ cleavage).
Conditions: not given
The class given is biochemical. The text has this:
This Example describes an assay of ARM-SAM-TTR NADase activity and use of this assay to measure the efficacy of compounds of Formula I or Formula II to block SARM1 mediated NAD+ cleavage. This assay is optimized in such a way as to characterize the efficacy of the compounds in Formula I or Formula II to inhibit SARM1 activity and to calculate an IC50 value for each compound. This assay makes use of full length SARI, which encompasses the ARM, SAM and TTR domains.
Preparation of ARM-SAM-TIR Lysate (STL)
NRK1-HEK293T cells were seeded onto 150 cm^2 plates at 20×10^6 cells per plate. The next day, the cells were transfected with 15 μg ARM-SAM-TIR expression plasmid, SEQ ID NO: 1.
The cultures were supplemented with 1 mM NR at time of transfection to minimize toxicity from ARM-SAM-TIR overexpression. Forty-eight hours after transfection, cells were harvested, pelleted by centrifugation at 1,000 rpm (Sorvall ST 16R centrifuge, Thermo Fisher), and washed once with cold PBS (0.01 M phosphate buffered saline NaCl 0.138 M; KCl 0.0027 M; pH 7.4). The cells were resuspended in PBS with protease inhibitors (cOmplete™ protease inhibitor cocktail, Roche product #11873580001) and cell lysates were prepared by sonication (Branson Sonifer 450, output=3, 20 episodes of stroke). The lysates were centrifuged (12,000×g for 10 min at 4° C.) to remove cell debris and the supernatants (containing ARM-SAM-TIR protein) were stored at −80° C. for later use in the in vitro ARM-SAM-TIR NADase assay (see below). Protein concentration was determined by the Bicinchoninic (BCA) method and used to normalize lysate concentrations.
ARM-SAM-TIR IC50 Assay of Formula I or Formula II Compounds.
The enzymatic assay was performed in a 384-well polypropylene plate in Dulbecco's PBS buffer in a final assay volume of 20 μL. ARM-SAM-TIR lysate with a final concentration of 5 μg/mL was pre-incubated with the respective compound at 1% DMSO final assay concentration over 2 h at room temperature. The reaction was initiated by addition of 5 μM final assay concentration of NAD+ as substrate. After a 2 hr room temperature incubation, the reaction was terminated with 40 μL of stop solution of 7.5% trichloroactetic acid in acetonitrile. The NAD+ and ADPR concentrations were analyzed by a RapidFire High Throughput Mass Spectrometry System (Agilent Technologies, Santa Clara, CA) using an API4000 triple quadrupole mass spectrometer (AB Sciex Framingham, MA).
As usually defined, the IC50 is the concentration needed to halve the response being measured. Compound `N#Cc1cc(N2CCNCC2)nc2ccc(Cl)cc12` [Example 16] had an IC50 above 30 µM.
On the same count and under the same terms, the figure for `N#Cc1cc(N2CC3CCC2CN3)nc2ccc(Cl)cc12` (stereo not drawn) [Example 74] is below 5 µM; for `N#Cc1cc(N2C[C@H]3C[C@@H]2CN3)nc2ccc(Cl)cc12` [Example 84] it is 5 to 15 µM.

The assay is the same for the next values; noted with them: ARM-SAM-TIR lysate 5 μg/mL from NRK1-HEK293T cells; 2 h pre-incubation with compound, 5 μM NAD+, 2 hr room temperature; NAD+ and ADPR by RapidFire mass spectrometry; read-out: SARM1 IC50.
As to `N#Cc1cc(N)nc2ccc(Cl)cc12` [Example 70], the IC50 was 15 to 30 µM.
On the same count and under the same terms, the figure for `N#Cc1cc(N2CCC[C@H](NC(=O)c3ccncn3)C2)nc2ccc(Br)cc12` [Example 126] is below 5 µM; for `CN1CCN(c2cc(C#N)c3cc(Cl)ccc3n2)CC1` [Example 52] it is above 30 µM; for `N#Cc1cc(N2CC[C@H](C(=O)N3CCCC3)C2)nc2ccc(Br)cc12` [Example 142] it is below 5 µM.
Same read-out and setting: the result for `CN(C)C(=O)[C@H]1CCCN(c2cc(C#N)c3cc(Cl)ccc3n2)C1` [Example 80] reads below 5 µM.
On the same count and under the same terms, the figure for `N#Cc1c(Cl)c(N2CC[C@@H](O)C2)nc2ccc(Cl)cc12` [Example 90] is below 5 µM; for `N#Cc1cc(N2CCC(C(=O)N3CCOCC3)CC2)nc2ccc(Br)cc12` [Example 104] it is below 5 µM; for `CNc1cc(C#N)c2cc(Cl)ccc2n1` [Example 50] it is below 5 µM.
On to `N#Cc1cc(Cl)nc2ccc(Cl)cc12` [Example 15], for which the IC50 is above 30 µM.
On the same count and under the same terms, the result for `N#Cc1cc(N2CCC(O)CC2)nc2ccc(Cl)cc12` [Example 75] reads below 5 µM.
`N#Cc1cc(N2CCC[C@@H]2C(=O)N2CCCC2)nc2ccc(Br)cc12` [Example 146]: the IC50 is below 5 µM.
Same read-out and setting: the figure for `N#Cc1cc(N2CC[C@@H](O)C2)nc2ccc(Cl)cc12` [Example 11] is below 5 µM; for `C[C@@H]1CCC[C@H](C)N1c1cc(C#N)c2cc(CO)ccc2n1` [Example 149] it is below 5 µM.
On the same count and under the same terms, the figure for `Cn1cnc(C(=O)N[C@H]2CCCN(c3cc(C#N)c4cc(Br)ccc4n3)C2)c1` [Example 130] is below 5 µM; for `CS(=O)(=O)C1CCCN(c2cc(C#N)c3cc(Cl)ccc3n2)C1` (stereo not drawn) [Example 59] it is below 5 µM; for `N#Cc1cc(N2CCC[C@H](NC(=O)c3c[nH]cn3)C2)nc2ccc(Br)cc12` [Example 136] it is below 5 µM.
As to `N#Cc1cc(N2CCCC(c3ccccn3)C2)nc2ccc(Br)cc12` (stereo not drawn) [Example 150], the IC50 was below 5 µM.
For the compound `N#Cc1cc(N2CCCCC2)nc2cc(Cl)ccc12` [Example 26], the IC50 is below 5 µM.
Same read-out and setting: the figure for `CS(=O)(=O)N[C@H]1CCCN(c2cc(C#N)c3cc(Br)ccc3n2)C1` [Example 110] is below 5 µM.
Take `N#Cc1cc(NCc2cccc(C(N)=O)c2)nc2ccc(Cl)cc12` [Example 45]: the IC50 is below 5 µM.
`N#Cc1cc(N2CC[C@@H](C(=O)N3CCCC3)C2)nc2ccc(Br)cc12` [Example 143]: the IC50 was below 5 µM.
The same measure, in the same setting: the result for `N#Cc1cc(N2CCC[C@H](NC(=O)C3CC3)C2)nc2ccc(Br)cc12` [Example 106] reads below 5 µM; that for `CC1(NS(C)(=O)=O)CCN(c2cc(C#N)c3cc(Br)ccc3n2)CC1` [Example 118], below 5 µM; that for `CC1(O)CCCN(c2cc(C#N)c3cc(Br)ccc3n2)C1` (stereo not drawn) [Example 97], below 5 µM.
Still for that read-out and setting: the result for `CN(C)c1cc(C#N)c2cc(F)ccc2n1` [Example 25] reads 5 to 15 µM; that for `N#Cc1cc(N2CCSCC2)nc2ccc(Cl)cc12` [Example 92], below 5 µM; that for `CS(=O)(=O)NC1CCN(c2cc(C#N)c3cc(Br)ccc3n2)CC1` [Example 117], below 5 µM.
Regarding `COCCNC(=O)CNc1cc(C#N)c2cc(Cl)ccc2n1` [Example 29], the IC50 is 15 to 30 µM.
Same read-out and setting: the result for `N#Cc1cc(N2CCC(C(=O)NCC3CC3)CC2)nc2ccc(Br)cc12` [Example 105] reads 5 to 15 µM; that for `N#Cc1cc(N2CCCC(c3ncccn3)C2)nc2ccc(Br)cc12` (stereo not drawn) [Example 152], below 5 µM; that for `CN1CCC(Nc2cc(C#N)c3cc(Cl)ccc3n2)C1=O` (stereo not drawn) [Example 46], below 5 µM.
For the compound `CS(=O)(=O)C1CCN(c2cc(C#N)c3cc(Cl)ccc3n2)C1` (stereo not drawn) [Example 47], the IC50 is below 5 µM.
On the same count and under the same terms, the figure for `CC(=O)N[C@@]1(C)CCCN(c2cc(C#N)c3cc(Br)ccc3n2)C1` [Example 119] is below 5 µM.
As to `N#Cc1cc(N2CCOCC2)nc2ccc(Cl)cc12` [Example 76], the IC50 is below 5 µM.
Still for that read-out and setting: the figure for `N#Cc1cc(N2CC[C@H](O)C2)nc2ccc(Cl)cc12` [Example 12] is below 5 µM; for `CC(=O)N[C@]1(C)CCCN(c2cc(C#N)c3cc(Br)ccc3n2)C1` [Example 121] it is below 5 µM.
Still for that read-out and setting: the figure for `C[C@H]1CCCN(c2cc(C#N)c3cc(Cl)ccc3n2)C1` [Example 63] is below 5 µM; for `Cc1n[nH]cc1C(=O)N[C@H]1CCCN(c2cc(C#N)c3cc(Br)ccc3n2)C1` [Example 129] it is below 5 µM.
On the same count and under the same terms, the figure for `N#Cc1cc(N2CCCC23CCOC3)nc2ccc(Br)cc12` (stereo not drawn) [Example 145] is below 5 µM; for `NC(=O)c1cc(N2CCC(NCCO)CC2)nc2ccc(Cl)cc12` [Example 6] it is above 30 µM; for `CN(C)c1cc(C#N)c2cc(Br)ccc2n1` [Example 22] it is below 5 µM.
As to `COCCN(C)C(=O)C1CCN(c2cc(C#N)c3cc(Br)ccc3n2)CC1` [Example 123], the IC50 was below 5 µM.
Still for that read-out and setting: the figure for `C#CCCC1(CCNc2cc(C#N)c3cc(Cl)ccc3n2)N=N1` [Example 111] is below 5 µM; for `N#Cc1cc(NC2CC2)nc2ccc(Cl)cc12` [Example 51] it is above 30 µM.
Still for that read-out and setting: the result for `CC(O)c1ccc2nc(N3[C@H](C)CCC[C@@H]3C)cc(C#N)c2c1` (stereo partly drawn) [Example 147] reads below 5 µM; that for `N#Cc1cc(N2CCC[C@H](NC(=O)c3cn[nH]c3)C2)nc2ccc(Br)cc12` [Example 127], below 5 µM.
The same measure, in the same setting: the figure for `N#Cc1cc(N2CCC[C@H](C(N)=O)C2)nc2ccc(Cl)cc12` [Example 78] is below 5 µM; for `N#Cc1cc(N2CCC[C@H](NC(=O)N3CCS(=O)(=O)CC3)C2)nc2ccc(Br)cc12` [Example 138] it is below 5 µM; for `CC(C)(C)OC(=O)NC1CCN(c2cc(C#N)c3cc(C4=CCOC4)ccc3n2)CC1` [Example 93] it is below 5 µM.
Take `N#Cc1cc(N2CCCCC2C2CC2)nc2ccc(Cl)cc12` (stereo not drawn) [Example 98]: the IC50 is below 5 µM.
Still for that read-out and setting: the result for `N#Cc1cc(NC2CCCN(C(N)=O)C2)nc2ccc(Cl)cc12` (stereo not drawn) [Example 37] reads below 5 µM.
Turning to `CN(Cc1ccccc1)C(=O)C1CCN(c2cc(C#N)c3cc(Br)ccc3n2)CC1` [Example 125], the IC50 was below 5 µM.
Same read-out and setting: the result for `CO[C@@H]1CCCN(c2cc(C#N)c3cc(Cl)ccc3n2)C1` [Example 60] reads below 5 µM; that for `COCCNC(=O)[C@H]1CCCN(c2cc(C#N)c3cc(Br)ccc3n2)C1` [Example 102], below 5 µM; that for `N#Cc1cc(N2CCC[C@H](NC(=O)c3cncnc3)C2)nc2ccc(Br)cc12` [Example 139], below 5 µM.
Same read-out and setting: the figure for `N#Cc1cc(N2CC[C@H](N)C2)nc2ccc(Cl)cc12` [Example 66] is below 5 µM.
The same measure, in the same setting: the figure for `CC1CC(CNc2cc(C#N)c3cc(Cl)ccc3n2)CCO1` (stereo not drawn) [Example 36] is below 5 µM.
